According to patent publication US20160137639A1, “TRIAZOLE-ISOXAZOLE COMPOUND AND MEDICAL USE THEREOF” (JAPAN TOBACCO INC., priority 2012, published 2016):
Like-named read-outs stand apart in the source and are kept apart here.

Key:
human RORγ = molecular target: T1, human RORγ (Homo sapiens, UniProt P51449); test: Luciferase reporter gene assay of inhibitory effect against RORγ transcriptional activity (GAL4-hRORγ plasmid in CHO cells); format: cell-based
T1 construct: human, NM_005060.3 and from Ser253 to Lys518; expressed in transfected cells; host or cells: CHO cells (transient co-transfection with pG5-Luc reporter)
T1 sequence (P51449 253-518): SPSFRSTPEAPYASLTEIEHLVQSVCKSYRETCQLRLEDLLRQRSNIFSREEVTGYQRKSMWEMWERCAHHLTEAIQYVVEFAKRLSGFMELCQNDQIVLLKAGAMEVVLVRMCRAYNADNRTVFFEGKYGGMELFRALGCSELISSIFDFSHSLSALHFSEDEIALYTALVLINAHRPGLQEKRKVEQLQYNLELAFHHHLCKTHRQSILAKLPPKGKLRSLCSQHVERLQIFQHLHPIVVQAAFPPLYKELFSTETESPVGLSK

mouse RORγ = molecular target: T2, mouse RORγ (Mus musculus, UniProt P51450); test: Luciferase reporter gene assay of inhibitory effect against RORγ transcriptional activity (GAL4-mRORγ plasmid in CHO cells); format: cell-based
T2 construct: mouse, NM_011281.2 and from Ile251 to Lys516; expressed in transfected cells; host or cells: CHO cells (transient co-transfection with pG5-Luc reporter)
T2 sequence (P51450 251-516): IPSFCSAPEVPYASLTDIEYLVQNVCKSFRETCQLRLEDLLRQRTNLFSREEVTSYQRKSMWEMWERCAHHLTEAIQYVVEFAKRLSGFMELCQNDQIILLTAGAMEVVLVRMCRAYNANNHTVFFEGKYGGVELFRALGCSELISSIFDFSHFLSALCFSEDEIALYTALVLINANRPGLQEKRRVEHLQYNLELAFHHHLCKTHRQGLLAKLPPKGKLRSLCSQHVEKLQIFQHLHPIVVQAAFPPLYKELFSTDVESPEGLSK
Outline: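 CHO cells transiently co-transfected with GAL4-mouse RORγ LBD (Ile251–Lys516) and GAL4-dependent luciferase reporter; eight compound concentrations, 0.1% DMSO, 2 days at 37 °C. Luminescence as %-of-vehicle control; EC50 by curve fit, cytotoxic concentrations excluded.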

## Cc1ccc(NC(=O)C[C@@H](c2nnc([C@H]3C[C@@H](CC(C)C)C3)n2C2CC2)N(C)C)c(C)c1 [Example F-516]
Human RORγ; read-out: LUC EC50 hRORg
  EC50: < 3 µM
Mouse RORγ; read-out: LUC EC50 mRORg
  EC50: < 3 µM

## CC(=O)N1C[C@H](C(=O)Nc2ccc(C)cc2C)[C@@H](c2nnc(CCCC(C)C)n2C2CC2)C1 [Example F-315]
Human RORγ; read-out: LUC EC50 (μM) hRORg
  EC50: < 3 µM
Mouse RORγ; read-out: LUC EC50 (μM) mRORg
  EC50: < 3 µM

## CC(C)(C)Cc1cc(-c2onc([C@@H](CCC(=O)O)CC(=O)Nc3ccc(Cl)cc3F)c2C2CC2)no1 [Example E-56]
Human RORγ; read-out: LUC EC50 (μM) hRORg
  EC50: < 3 µM
Mouse RORγ; read-out: LUC EC50 (μM) mRORg
  EC50: < 3 µM

## Cc1ccccc1CNC(=O)CCc1nnc(CCC(C)C)n1C1CC1 [Example F-59]
Human RORγ; read-out: LUC EC50 (μM) hRORg
  EC50: > 3 µM
Mouse RORγ; read-out: LUC EC50 (μM) mRORg
  EC50: > 3 µM

## C=CC[C@H](CC(=O)Nc1ccc(C)cc1C)c1nnc(CCCC(C)(C)C)n1C1CC1 [Example F-381]
Human RORγ; read-out: LUC EC50 (μM) hRORg
  EC50: > 3 µM
Mouse RORγ; read-out: LUC EC50 (μM) mRORg
  EC50: < 3 µM

## COc1ccc(CNC(=O)CCc2nnc(CCC(C)C)n2C2CC2)c(C)c1 [Example F-108]
Human RORγ; read-out: LUC EC50 (μM) hRORg
  EC50: > 3 µM
Mouse RORγ; read-out: LUC EC50 (μM) mRORg
  EC50: > 3 µM

## Cc1ccc(NCc2nnc(CCC(=O)Nc3cccc(Cl)c3C)n2C2CC2)c(C)c1 [Example F-206]
Human RORγ; read-out: LUC EC50 (μM) hRORg
  EC50: < 3 µM
Mouse RORγ; read-out: LUC EC50 (μM) mRORg
  EC50: < 3 µM

## CC(=O)N1C[C@H](C(=O)Nc2ccc(C)cc2C)[C@@H](c2nnc(CC3CC(C)(C)C3)n2C2CC2)C1 (racemic) [Example F-347]
Human RORγ; read-out: LUC EC50 (μM) hRORg
  EC50: < 3 µM
Mouse RORγ; read-out: LUC EC50 (μM) mRORg
  EC50: < 3 µM

## COc1cc(C)ccc1CNC(=O)[C@H]1CN(C(C)=O)C[C@@H]1c1nnc(CCCC(C)C)n1C1CC1 (racemic) [Example F-279]
Human RORγ; read-out: LUC EC50 (μM) hRORg
  EC50: < 3 µM
Mouse RORγ; read-out: LUC EC50 (μM) mRORg
  EC50: < 3 µM

## Cc1ccc(NC(=O)C[C@H](NC(C)C)c2nnc([C@H]3C[C@@H](CC(C)C)C3)n2C2CC2)c(C)c1 [Example F-536]
Human RORγ; read-out: LUC EC50 hRORg
  EC50: < 3 µM
Mouse RORγ; read-out: LUC EC50 mRORg
  EC50: < 3 µM

## CCn1c(CCCC(C)(C)C)nnc1[C@@H]1[C@@H](C(=O)Nc2ccc(C)cc2C)CCN1C(C)=O [Example F-369]
Human RORγ; read-out: LUC EC50 (μM) hRORg
  EC50: < 3 µM
Mouse RORγ; read-out: LUC EC50 (μM) mRORg
  EC50: < 3 µM

## CNC(=O)CCC(CC(=O)Nc1ccc(C)cc1C)c1nnc(CCCC(C)C)n1C1CC1 (racemic) [Example F-285]
Human RORγ; read-out: LUC EC50 (μM) hRORg
  EC50: > 3 µM
Mouse RORγ; read-out: LUC EC50 (μM) mRORg
  EC50: < 3 µM

## Cc1c(Cl)cccc1NC(=O)CCc1nnc(CCCC(C)C)n1C1CC1 [Example F-120]
Human RORγ; read-out: LUC EC50 (μM) hRORg
  EC50: < 3 µM
Mouse RORγ; read-out: LUC EC50 (μM) mRORg
  EC50: < 3 µM

## Cc1ccc(C)c(NC(=O)CCc2nnc(CCC(C)C)n2C2CC2)c1 [Example F-71]
Human RORγ; read-out: LUC EC50 (μM) hRORg
  EC50: > 3 µM
Mouse RORγ; read-out: LUC EC50 (μM) mRORg
  EC50: > 3 µM

## COc1cc(C)ccc1CNC(=O)[C@H]1CCCN(C)[C@@H]1c1nnc(CCC2CCCCC2)n1C1CC1 [Example F-267]
Human RORγ; read-out: LUC EC50 (μM) hRORg
  EC50: < 3 µM
Mouse RORγ; read-out: LUC EC50 (μM) mRORg
  EC50: < 3 µM

## CCn1c(CCC(=O)Nc2cccc(Cl)c2C)nnc1CCC(C)(C)C [Example F-53]
Human RORγ; read-out: LUC EC50 (μM) hRORg
  EC50: > 3 µM
Mouse RORγ; read-out: LUC EC50 (μM) mRORg
  EC50: < 3 µM

## Cc1ccc(NC(=O)C2CN(CC(=O)O)CC2c2noc([C@H]3C[C@@H](CC(C)(C)C)C3)c2C2CC2)c(Cl)c1 (stereo partly drawn) [Example F-687]
Human RORγ; read-out: LUC EC50 hRORg
  EC50: < 3 µM
Mouse RORγ; read-out: LUC EC50 mRORg
  EC50: < 3 µM

## CC(=O)N[C@@H](CC(=O)Nc1ccc(C)cc1C)c1nnc(CCCC(C)C)n1C1CC1 [Example F-291]
Human RORγ; read-out: LUC EC50 (μM) hRORg
  EC50: < 3 µM
Mouse RORγ; read-out: LUC EC50 (μM) mRORg
  EC50: < 3 µM

## COc1ccccc1NC(=O)CCc1nnc(CCC(C)C)n1C1CC1 [Example F-73]
Human RORγ; read-out: LUC EC50 (μM) hRORg
  EC50: > 3 µM
Mouse RORγ; read-out: LUC EC50 (μM) mRORg
  EC50: > 3 µM

## Cc1ccc(NC(=O)CCc2nnc(CCCC(C)(C)C)n2C2CC2)c(C)c1 [Example F-305]
Human RORγ; read-out: LUC EC50 (μM) hRORg
  EC50: < 3 µM
Mouse RORγ; read-out: LUC EC50 (μM) mRORg
  EC50: < 3 µM

## CC(=O)N1C[C@@H](C(=O)Nc2ccc(C)cc2C)[C@H](c2nnc(CCCC(C)(C)C)n2CC(F)(F)F)C1 [Example F-393]
Human RORγ; read-out: LUC EC50 (μM) hRORg
  EC50: > 3 µM
Mouse RORγ; read-out: LUC EC50 (μM) mRORg
  EC50: > 3 µM
